How the values were obtained:
V79 [1] = settings: Cricetulus griseus
V79 [2] = settings: Cricetulus griseus; remark: listed apart in the source
[3] = Mean surviving fraction of V79 cells following a 1-h exposure to H2O2.; type: functional, Cricetulus griseus
[4] = Mean surviving fraction of V79 cells following a 12-Gy dose of radiation.; type: functional, Cricetulus griseus

SMILES	H2O2 prot (V79 [1])	Radiation prot (V79 [2])	H2O2 prot [3]	Radiation prot [4]
CC1(C)C=C(C=O)CC(C)(C)N1[O]	0.8	6.1		
CC1(C)C=C(C(=O)O)C(C)(C)N1[O]			1	
CC1(C)C=C(NC(N)=O)C(C)(C)N1[O]	1.2			
CC1(C)C=C(CO)C(C)(C)N1[O]	1.8	2.6		
CC1(C)C=C(CO)C(C)(C)N1O			3.1	0.92
CC(=O)NC1CC(C)(C)N(O)C(C)(C)C1			1.8	0.85
CC1(C)C=C(CCNC(=N)N)C(C)(C)N1[O]		1		
CC1(C)C=C(C(=O)NCCCN)C(C)(C)N1				0.52
CC1(C)CC(CN)C(C)(C)N1[O] (stereo not drawn)			0.7	13.7
CC1(C)C=C(C=O)C(C)(C)N1O			2.7	0.13
COC(=O)C1=CC(C)(C)N([O])C1(C)C	1.5	0.94		
CCCCN(CCCC)C1CC(C)(C)N([O])C(C)(C)C1	2.9			
CC1(C)C=C(CN2CCCC2)C(C)(C)N1O				28.3
CC1(C)C=C(CNCc2ccccc2)C(C)(C)N1[O]	2	5.2		
CC1(C)CC(=O)CC(C)(C)N1[O]			1.1	7.1
CC1(C)C=C(CC[Se]C(=N)N)C(C)(C)[NH+]1[O-] (stereo not drawn)			1.3	
CC1(C)C=C(C(=O)NCCCN2C(=O)c3ccccc3C2=O)C(C)(C)N1			1.1	1.9
CN1C(C)(C)C=C(C=O)C1(C)C				0.6
CC1(C)CC(=O)C(C)(C)N1[O]	0.9	10.2		
CC1(C)C=C(CNC2CCCCC2)C(C)(C)N1[O]		4.4		
CN(CC1=CC(C)(C)N(O)C1(C)C)C12CC3CC(CC(C3)C1)C2			2.6	
CC1(C)C=C(CN2CCCCC2)C(C)(C)N1				0.95
CC1(C)C=C(C(=O)NCC(=O)O)C(C)(C)N1[O]	0.9	0.98		

SMILES	H2O2 prot (V79 [1])	Radiation prot (V79 [2])	H2O2 prot [3]	Radiation prot [4]
CC1(C)CC(C(=O)O)C(C)(C)N1[O] (stereo not drawn)			1	
CC(=O)C1=CC(C)(C)N(O)C1(C)C			2.7	0.15
CC1(C)CCC(C)(C)N1[O]			0.9	4.6
CC1=[N+]([O-])C(C)(C)CC1			0.8	1.1
CC1(C)C=C(CNC23CC4CC(CC(C4)C2)C3)C(C)(C)N1O			2.5	1.8
CCOCC1=CC(C)(C)N(O)C1(C)C			3.2	
CC1(C)C=C(CCSC(=N)N)C(C)(C)N1[O]	2.2	7.5		
CC1(C)CC(NC2CC(C)(C)N(O)C(C)(C)C2)CC(C)(C)N1O.Cl			1.9	1.4
CC1(C)CCCC(C)(C)N1[O]			3.5	4.2
CC1(C)C=C(C=O)C(C)(C)N1[O]	1.3	2.7		
CN(C)CCCNC(=O)C1=CC(C)(C)N([O])C1(C)C		15		
CC1(C)CC(NS(C)(=O)=O)CC(C)(C)N1O				0.77
CC1(C)C=C(C(=O)NCCO)C(C)(C)N1[O]	1.2			
CC1(C)C=C(CN2Cc3ccccc3C2)C(C)(C)N1[O]		3.9		
CC1(C)CC(CO)C(C)(C)N1[O] (stereo not drawn)	1.1	4.7		
CC(C)(C)NCC1=CC(C)(C)N([O])C1(C)C	2	19.3		
CC1(C)C=C(C(=O)NCCCN)C(C)(C)N1[O]	1.1			
CN(CC1=CC(C)(C)N([O])C1(C)C)Cc1ccccc1	2			
CC1(C)CC(N)CC(C)(C)N1[O] [TEMPAMINE]			2.8	18.5
CC1=[N+]([O-])C(C)CC1 (stereo not drawn)			1.1	0.91
CC1(C)C=C(CN2CCCCC2)C(C)(C)N1O				30
CC1(C)CC(O)CC(C)(C)N1[O] [TEMPOL]			2.5	5.1
CC1(C)C=C(C(N)=O)C(C)(C)N1[O]	1	10.7		

SMILES	H2O2 prot (V79 [1])	Radiation prot (V79 [2])	H2O2 prot [3]	Radiation prot [4]
CC1(C)C=C(CN2CCCCC2)C(C)(C)N1[O]		19.1		
CC1(C)C=C(C(=O)NCCCN2C(=O)c3ccccc3C2=O)C(C)(C)N1O			2.2	1.3
CC1(C)CC(O)C(C)(C)N1[O] (stereo not drawn)	1.4	2.9		
CCOC1CC(C)(C)N([O])C(C)(C)C1	1.9			
CC(=O)C1=CC(C)(C)N([O])C1(C)C				4.8
CC1(C)C=C(CNC23CC4CC(CC(C4)C2)C3)C(C)(C)N1			1.9	1.4
CC(=O)C1=CC(C)(C)NC1(C)C			1.3	0.63
CC1(C)CC(=O)CC(C)(C)N1			0.5	1.1
CC1(C)CC(N)CC(C)(C)N1O			1	1.1
CC1(C)CC(=O)CC(C)(C)N1O				0.68
CN(CC1=CC(C)(C)N([O])C1(C)C)C12CC3CC(CC(C3)C1)C2	3.3			
CCCCN(CCCC)CC1=CC(C)(C)N([O])C1(C)C	3.2			
CC1(C)C=C(CNC23CC4CC(CC(C4)C2)C3)CC(C)(C)N1O			2.1	
CCOCC1=CC(C)(C)N([O])C1(C)C	1.3			
CCOC1CC(C)(C)N(O)C(C)(C)C1			1.6	
CN(C)CC1=CC(C)(C)N(O)C1(C)C				16
CC1(C)CC(N)C(C)(C)N1[O] (stereo not drawn)			1.1	12.9
CCN(CC)CC1=CC(C)(C)N(O)C1(C)C				0.96
CC1(C)CC(O)CC(C)(C)N1			0.4	0.9
CC1(C)CC(C(=O)NCCCN2C(=O)c3ccccc3C2=O)C(C)(C)N1O (stereo not drawn)				1.26
CCN(CC)CC1=CC(C)(C)N([O])C1(C)C		17.2		
CCCC[N+](CCCC)(CCCC)CC1=CC(C)(C)N([O])C1(C)C	1.1	0.69		
CC1(C)C=C(C(=O)NCCCN)C(C)(C)N1O			1	

SMILES	H2O2 prot (V79 [1])	Radiation prot (V79 [2])	H2O2 prot [3]	Radiation prot [4]
CC1(C)C=C(C[P+](c2ccccc2)(c2ccccc2)c2ccccc2)C(C)(C)N1[O]		0.72		
CC1(C)CC(N2C(=O)c3ccccc3C2=O)CC(C)(C)N1			0.8	1.7
CC1(C)C=C(C(=O)NCCCO)C(C)(C)N1[O]	1.1			
CC1(C)CC(C(N)=O)C(C)(C)N1[O] (stereo not drawn)			1.7	11.2
CC1(C)C=C(CN2C(=O)c3ccccc3C2=O)C(C)(C)N1O			3.3	0.49
CC1(C)CC(=O)C(C)(C)N1O			1.1	1
CC1(C)C=C(C=O)C(C)(C)N1			0.9	0.07
CCCCNCC1=CC(C)(C)N([O])C1(C)C	2.5	3.96		
CC1(C)C=C(CNC23CC4CC(CC(C4)C2)C3)C(C)(C)N1[O]	3.3			
CC1(C)C=C(CN2CCCC2)C(C)(C)N1[O]		21.4		
CC1(C)C=C(C=O)CC(C)(C)N1				0.4
CC1(C)CC(O)CC(C)(C)N1O [TEMPOL HYDROXYLAMINE]				1.05
CC1(C)C=C(CN2CCCC2)C(C)(C)N1			1	0.34
CC[N+](CC)(CC)CC1=CC(C)(C)N([O])C1(C)C		1.2		
CN(C)CC1=CC(C)(C)NC1(C)C				0.95
CC1(C)CC(N2C(=O)c3ccccc3C2=O)CC(C)(C)N1O			1.5	
CC1(C)CCC=[N+]1[O-]			0.9	0.93
CC(C)(C)NCC1=CC(C)(C)N(O)C1(C)C			2.1	1.2
CC1(C)CCCC(C)(C)N1O			1.5	0.68
CC1(C)C=C(CO)C(C)(C)N1			0.9	1.5
CC1(C)C=C(C=O)CC(C)(C)N1O				1.5
CN(C)CC1=CC(C)(C)N([O])C1(C)C	2.1	13.9		
